Experimental data taken from patent publication US20230065577A1, “COMBINATIONS” (Recurium IP Holdings, LLC, priority 2019, published 2023).
Read-outs that look alike come from different tables or passages of the source.

How the values were obtained:
Assay type in all cases: cell-based
DMS-53 cells = test: CTG Assay (CellTiter-Glo Luminescent Cell Viability Assay), DMS-53; conditions: Homo sapiens
Experimental: (§1) Cell proliferation was measured using the CellTiter-Glo® Luminescent Cell Viability Assay. The assay involved the addition of a single reagent (CellTiter-Glo® Reagent) directly to cells cultured in serum-supplemented medium. DMS-53 (ATCC, CRL-2062), MV4-11 (ATCC, CRL-9591), MCF-7 (ATCC, HTB-22) and ZR-75-1 (ATCC, CRL-1500) cells were cultured according to ATCC recommendations and were seeded at 20,000 cells per well.
(§2) Each compound evaluated was prepared as a DMSO stock solution (10 mM). For DMS-53 and MV4-11 cell lines, Compounds 1 and 5a were tested in triplicate using the respective IC50 concentrations indicated in Table 2. The MCF-7 combination assay was performed in duplicate with a 10-point serial dilution curve (1:3 dilution) for Compounds 1 and 5a, and a 10-point serial dilution curve (1:5 dilution) when treated in combination. The highest compound concentration was 10 μM with a 0.1% final DMSO concentration. Plates were incubated at 37° C., 5% CO2 for 72 h and then equilibrated at room temperature for approximately 30 min. […] Luminescence (RLU (relative light unit)) was recorded using a SpectraMAX, M5e plate reader according to CellTiter-Glo protocol. Percent inhibition was calculated using the following formula: % inhibition=(RLU*100/(RLU of the cell background)). IC50 of each compound was calculated using GraphPad Prism by nonlinear regression analysis.

MV4-11 cells = test: CTG Assay (CellTiter-Glo Luminescent Cell Viability Assay), MV4-11; conditions: Homo sapiens
Experimental: as §1, §2

[1] = test system: MCF-7 breast cancer cells; test: CTG Assay (CellTiter-Glo Luminescent Cell Viability Assay), MCF-7 combination assay; conditions: Homo sapiens, MCF7, 72 h, 10-point dilution, top 10 μM
Experimental: as §1, §2

[2] = test system: ZR-75-1 breast cancer cells; test: CTG Assay (CellTiter-Glo Luminescent Cell Viability Assay), ZR-75-1; conditions: Homo sapiens, 72 h
Experimental: as §1, §2

[3] = single agent, IC50 used as test concentration, read-out: Concentration (respective IC50 concentration)
[4] = read-out: Absolute IC50 Based on % Inhibition
[5] = read-out: Relative IC50 Based on % Inhibition

IC50 (MV4-11 cells; [3]): 15 nM
IC50 [1, 4]: 346 nM
IC50 [1, 5]: 307 nM
IC50 [2, 4]: 1770 nM
IC50 [2, 5]: 1240 nM
SMILES: C=CCn1c(=O)c2cnc(Nc3ccc(N4CCN(C)CC4)cc3)nc2n1-c1cccc(C(C)(C)O)n1 [Compound 1]
inhibition at 0.65 µM (DMS-53 cells; 650 nM, 72 h, triplicate): 37%
IC50 (DMS-53 cells; [3]): 650 nM
inhibition at 0.015 µM (MV4-11 cells; 15 nM, 72 h, triplicate): 37%
